The text below walks through data of patent US10590078B2, “Sodium channel blockers” (Daewoong Pharmaceutical Co., Ltd., priority 2015, dated 2020).

In general, IC50 refers to the concentration that gives 50% inhibition.

A value given as a limit tells only on which side of the number the result lay.

Sequence of human sodium ion channel 1.7 (hNav1.7) (Q15858 whole entry): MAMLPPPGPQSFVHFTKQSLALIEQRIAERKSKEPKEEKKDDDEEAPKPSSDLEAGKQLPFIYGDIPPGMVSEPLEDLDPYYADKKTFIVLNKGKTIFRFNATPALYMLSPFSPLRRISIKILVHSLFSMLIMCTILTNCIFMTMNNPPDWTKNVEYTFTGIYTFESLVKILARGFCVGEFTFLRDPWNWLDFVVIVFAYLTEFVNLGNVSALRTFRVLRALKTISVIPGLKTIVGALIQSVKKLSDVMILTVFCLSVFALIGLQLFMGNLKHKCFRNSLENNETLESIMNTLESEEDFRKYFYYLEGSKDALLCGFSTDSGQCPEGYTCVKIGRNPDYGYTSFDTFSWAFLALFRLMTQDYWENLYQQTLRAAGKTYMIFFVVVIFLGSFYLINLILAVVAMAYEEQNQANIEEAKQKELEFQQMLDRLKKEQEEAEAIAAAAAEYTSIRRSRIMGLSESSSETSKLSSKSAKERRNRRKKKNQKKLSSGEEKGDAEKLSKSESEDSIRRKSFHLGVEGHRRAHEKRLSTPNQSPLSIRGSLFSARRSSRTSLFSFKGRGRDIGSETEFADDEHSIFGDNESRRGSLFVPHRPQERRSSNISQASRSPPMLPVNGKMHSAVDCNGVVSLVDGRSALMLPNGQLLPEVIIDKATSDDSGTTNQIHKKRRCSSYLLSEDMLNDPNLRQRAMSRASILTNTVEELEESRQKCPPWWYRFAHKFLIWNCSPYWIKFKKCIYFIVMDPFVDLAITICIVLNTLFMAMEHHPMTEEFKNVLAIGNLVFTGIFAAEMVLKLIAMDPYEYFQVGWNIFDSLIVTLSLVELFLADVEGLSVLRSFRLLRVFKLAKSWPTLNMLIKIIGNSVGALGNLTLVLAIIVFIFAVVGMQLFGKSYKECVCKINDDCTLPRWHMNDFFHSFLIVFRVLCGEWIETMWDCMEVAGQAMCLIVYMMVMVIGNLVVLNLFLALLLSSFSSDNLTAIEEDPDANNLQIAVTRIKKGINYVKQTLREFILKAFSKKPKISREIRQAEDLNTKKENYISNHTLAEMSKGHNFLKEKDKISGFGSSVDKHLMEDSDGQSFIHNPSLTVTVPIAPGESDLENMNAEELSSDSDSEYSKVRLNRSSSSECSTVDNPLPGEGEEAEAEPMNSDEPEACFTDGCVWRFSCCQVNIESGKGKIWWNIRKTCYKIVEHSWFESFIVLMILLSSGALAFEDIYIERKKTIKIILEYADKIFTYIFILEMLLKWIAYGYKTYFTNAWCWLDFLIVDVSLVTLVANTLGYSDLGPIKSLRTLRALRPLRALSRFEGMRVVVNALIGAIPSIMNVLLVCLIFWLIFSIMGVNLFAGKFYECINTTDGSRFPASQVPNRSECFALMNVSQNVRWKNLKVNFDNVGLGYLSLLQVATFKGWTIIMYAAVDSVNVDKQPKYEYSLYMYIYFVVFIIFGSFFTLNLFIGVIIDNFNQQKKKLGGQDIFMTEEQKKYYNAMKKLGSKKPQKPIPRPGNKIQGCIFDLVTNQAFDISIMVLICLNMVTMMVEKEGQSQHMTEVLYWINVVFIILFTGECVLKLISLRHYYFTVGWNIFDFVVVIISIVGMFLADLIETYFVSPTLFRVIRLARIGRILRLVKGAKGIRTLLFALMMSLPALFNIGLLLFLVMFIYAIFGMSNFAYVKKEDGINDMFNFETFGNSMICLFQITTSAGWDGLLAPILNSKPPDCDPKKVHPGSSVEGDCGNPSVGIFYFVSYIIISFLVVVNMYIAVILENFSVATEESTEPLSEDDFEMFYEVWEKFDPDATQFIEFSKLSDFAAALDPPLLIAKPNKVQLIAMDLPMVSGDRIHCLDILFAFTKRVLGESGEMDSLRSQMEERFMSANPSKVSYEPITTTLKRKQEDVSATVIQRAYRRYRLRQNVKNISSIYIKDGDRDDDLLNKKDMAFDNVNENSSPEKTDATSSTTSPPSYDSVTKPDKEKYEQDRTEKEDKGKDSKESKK

The test has as its target human sodium ion channel 1.7 (hNav1.7) (Homo sapiens, UniProt Q15858). Put plainly: Blocking effect against sodium ion channel Nav1.7, IonFlux16 auto patch clamp in hNav1.7 HEK293 cells. Type of test: cell-based. Particulars: hNav1.7 HEK293 cells; inhibition of peak current after 50 seconds treatment; eight concentrations; read-out: IC50. For orientation: In patch-clamp work, channel activity is measured electrically.
Consider `CS(=O)(=O)NC(=O)c1cc(Cl)c(-n2cc(-c3ccc(Cl)c(F)c3)c3cccnc32)cc1F` [Example 223, 5-chloro-4-(3-(4-chloro-3-fluorophenyl)-1H-pyrrolo[2,3-b]pyridin-1-yl)-2-fluoro-N-(methylsulfonyl)benzamide], for which the IC50 amounted to 230 nM.

Turning to `CS(=O)(=O)NC(=O)c1cc(Cl)c(-n2nc(Cl)c3cc(Nc4ccccc4)ccc32)cc1F` [Example 27, 5-chloro-4-(3-chloro-5-(phenylamino)-1H-indazol-1-yl)-2-fluoro-N-(methylsulfonyl)benzamide], the IC50 is 7710 nM. The figure for `CS(=O)(=O)NC(=O)c1cc(Cl)c(-n2nc(-c3ccc(F)cc3)c3cc(Cl)ccc32)cc1F` [Example 55, 5-chloro-4-(5-chloro-3-(4-fluorophenyl)-1H-indazol-1-yl)-2-fluoro-N-(methylsulfonyl)benzamide] is 51 nM; for `COc1ccccc1-c1nn(-c2cc(F)c(C(=O)NS(C)(=O)=O)cc2Cl)c2ccc(Cl)cc12` [Example 58, 5-chloro-4-(5-chloro-3-(2-methoxyphenyl)-1H-indazol-1-yl)-2-fluoro-N-(methylsulfonyl)benzamide] it is 98 nM. The figure for `Cc1nn(-c2cc(F)c(C(=O)NS(C)(=O)=O)cc2Cl)c2ccc(Cl)cc12` [Example 1, 5-chloro-4-(5-chloro-3-methyl-1H-indazol-1-yl)-2-fluoro-N-(methylsulfonyl)benzamide] is > 10000 nM.

Turning to `CN(C(=O)c1cc(Cl)c(-n2nc(-c3ccc(Cl)cc3F)c3cc(Cl)ccc32)cc1F)S(C)(=O)=O` [Example 139, 5-chloro-4-(5-chloro-3-(4-chloro-2-fluorophenyl)-1H-indazol-1-yl)-2-fluoro-N-methyl-N-(methylsulfonyl)benzamide], the IC50 was found to be 1430 nM. For the molecule `CS(=O)(=O)NC(=O)c1cc(F)c(-n2nc(-c3cccc(F)c3)c3cc(Cl)ccc32)cc1Cl` [Example 114, 2-chloro-4-(5-chloro-3-(3-fluorophenyl)-1H-indazol-1-yl)-5-fluoro-N-(methylsulfonyl)benzamide], the IC50 came to 1440 nM.
